Assay results published in PMC9740939, “A Network-Pharmacology-Combined Integrated Pharmacokinetic Strategy to Investigate the Mechanism of Potential Liver Injury due to Polygonum multiflorum” (Molecules, 2022).
Read-outs that look alike come from different tables or passages of the source.

Assays:
[1] = Pharmacokinetic study in rats after oral administration of PM extract (HPLC-QQQ-MS of plasma); type: in vivo, Sprague–Dawley (SD) rats; conditions: oral PM 18 g/kg; for half-life: n = 6, read-out: T1/2z (converted); for MRT last: read-out: MRT0–t; for MRT inf: read-out: MRT0–∞; for Vd/F: read-out: Vz/F
Procedure: Adult male Sprague–Dawley (SD) rats weighing between 180 g and 220 g were purchased from Beijing Vital River Laboratory Animal Technology Co., Ltd. (Beijing, China). The rats were kept in an animal center with air-conditioning and with a natural light–dark cycle (22 ± 1 °C and 40–50% humidity) with ad libitum access to standard food and water for a week before the experiment. All the animal procedures were in accordance with the Regulations of Experimental Animal Administration issued by the State Committee of Science and Technology of the People’s Republic of China. All the SD rats were fasted for 12 h prior to the experiment but with free access to water.
The assay was performed with an Agilent 1260 high-performance liquid chromatography system combined with Agilent 6470 QQQ MS (Agilent Technologies, CA, USA). Applied Masshunter Qualitative Analysis software (version B.07.00) and Quantitative Analysis software (version 07.00) were used for data acquisition and quantification. Analytes separation was achieved on a reversed-phase C18 column (Agilent Poroshell 120 EC-C18, 3.0 × 50 mm, 2.7 μm), which was protected by a guard column (Agilent EC-C18 3.0 × 5.0 mm, 2.7 μm). A gradient elution program composed of water (A) and acetonitrile (B) with gradient elution was used as follows: 0–1 min, 5% B; 1–3 min, 5–45% B; 3–7 min, 45–60% B; and 7–9 min, 60–95% B. The oven temperature was maintained at 40 °C. The flow rate was set at 0.6 mL/min (with a split ratio of 1:1.8), and the injection volume was 4 μL.
Agilent QQQ MS equipped with an electrospray ionization (ESI) source was used for mass spectrometric detection. MRM mode (negative) was used for performing the quantification of TSG, EG, PG, AE, and EM. The other MS conditions were set as follows: gas temperature, 300 °C, gas flow, 8 L/min; nebulizer, 55 psi; and sheath gas flow, 11 L/min.
A simple pretreatment method for protein precipitation was carried out to clean up the plasma samples prior to LC-MS/MS analysis. The plasma sample was thawed to room temperature. An aliquot of pre-cooled 800 μL of acetonitrile and 100 μL of IS solution (100 ng/mL) was added to a 300 μL plasma sample in a centrifuge tube. The tubes were vortexed for 10 min and spun in a centrifuge at 12,000 rpm for 15 min at 4 °C. The supernatant was transferred into a separate tube and dried using a vacuum concentrator, and the samples were re-dissolved with 100 μL of pure methanol. Next, the tube was vortexed for 10 min and spun in a centrifuge at 12,000 rpm for 15 min at 4 °C again. The supernatant was then injected into the HPLC-QQQ-MS instrument for analysis.
(§1) Blood samples were collected from the fundus into heparinized 1.5 mL polythene tubes at 5, 15, and 30 min and 1, 2, 4, 8, 12, and 24 h after oral administration of PM (18 g/kg). The blood samples were immediately centrifuged at 3500 rpm for 10 min to obtain plasma. Next, the plasma obtained was prepared for HPLC-QQQ-MS analysis, as described before. The TSG, EG, PG, AE, and EM concentrations in plasma versus time data for each rat were analyzed using Drug and Statistics Software (DAS version 3.2.8, Beijing University of Traditional Chinese Medicine, Beijing, China).

[2] = Integrated pharmacokinetics by AUC-based weighting approach; type: in vivo, Sprague–Dawley (SD) rats; conditions: Wj = AUCj0–∞ / sum of AUC0–∞; rats, oral PM 18 g/kg
Procedure: as §1
As mentioned before, the concentration–time curve (AUC0–∞) of each constituent was obtained using DAS, and then the integrated concentration was obtain using the following equations [46]: The weighting coefficient for each component was calculated using Equations (1) and (2). The integrated concentrations were then calculated by Equation (3). (1) Wj=AUCj0−∞/∑13AUC0−∞ (2) ∑13AUC0−∞=AUC0−∞1+AUC0−∞2+AUC0−∞3 (3) cT=W1×c1+W2×c2+W3×c3 where ω represents the weighting coefficient, “j” represents the three constituents studied, C1–C3 represent the plasma concentration of the three index components studied, and CT represents the integrated plasma concentration.

[3] = Stability of analytes in rat plasma (QC samples, storage and freeze–thaw); type: in vitro ADME; conditions: for Stability in rat plasma (in words): 4 °C for 48 h, −80 °C for 10 days, three freeze–thaw cycles; for Stability Re (%), 4 °C, 48 h / Stability Re (%), −80 °C, 10 Days / Stability Re (%), Three Freeze–Thaw Cycles: rat plasma, n = 6; for Stability Re (%), Three Freeze–Thaw Cycles: −80 °C to 25 °C
Procedure: Samples for bioanalytical method validation were prepared by spiking 100 μL of blank rat plasma and 100 μL of IS solution in bulk with different standard solutions to obtain appropriate concentrations for serial standard working solutions with the matrix and QC samples (TSG, PG, AE, and EM: 0.50 ng/mL (lower limit of quantitation, LLOQ), 10.0 ng/mL (low quality control, LQC), 200 ng/mL (medium quality control, MQC), and 640 ng/mL (high quality control, HQC); EG: 0.125 ng/mL (LLOQ), 2.50 ng/mL (LQC), 50.0 ng/mL (MQC), and 160 ng/mL (HQC)). All the stock solutions, working solutions, and samples were stored at −80 °C pending use.
Stability experiments were performed to evaluate the stability of the analytes in rat plasma at the LQC, MQC, and HQC under different time and temperature conditions. These included short-term stability (4 °C for 48 h), long-term stability (−80 °C for 10 days), and stability over three freeze–thaw cycles (−80 °C to 25 °C) by analyzing QC samples.

[4] = male, Sprague-Dawley, rat, plasma, po, 18 g/kg, n = 6
[5] = male, Sprague-Dawley, rat, plasma, po, 18 g/kg
[6] = male, Sprague-Dawley, rat plasma, n = 6
[7] = HQC: spiked 640 ng/mL (EG 160 ng/mL)
[8] = LQC: spiked 10.0 ng/mL (EG 2.50 ng/mL)
[9] = MQC: spiked 200 ng/mL (EG 50.0 ng/mL)
[10] = male, Sprague-Dawley, rat plasma, n = 6, read-out: Tmax

O=C1c2cccc(O)c2C(=O)c2c(O)cc(CO)cc21 [AE, aloe-emodin]
AUC(0-inf) [1, 4]: 70.3 ± 13.8 ng·h/mL | half-life [1, 5]: 6.42 ± 2.17 h | AUC(0-t) [1, 6]: 64.5 ± 9.4 ng·h/mL | Cmax [1, 6]: 17.9 ± 2.94 ng/mL | MRT last [1, 6]: 6.5 ± 1.42 h | MRT inf [1, 6]: 8.57 ± 3.02 h | Vd/F [1, 6]: 407 ± 113 L/kg | CLz/F ([1]; rat plasma, n = 6): 756 ± 131 mL/min/kg | Tmax ([1]; rat plasma, n = 6): 0.25 ± 0.00 h | Weighting coefficient (AUC0–∞ share) [2]: 2.799% | Stability in rat plasma (in words) [3]: stable | Stability Re (%), 4 °C, 48 h [3, 7]: 90.21% | Stability Re (%), −80 °C, 10 Days [3, 7]: 100.1% | Stability Re (%), Three Freeze–Thaw Cycles [3, 7]: 96.94% | Stability Re (%), 4 °C, 48 h [3, 8]: 94.77% | Stability Re (%), −80 °C, 10 Days [3, 8]: 90.27% | Stability Re (%), Three Freeze–Thaw Cycles [3, 8]: 90.50% | Stability Re (%), 4 °C, 48 h [3, 9]: 97.05% | Stability Re (%), −80 °C, 10 Days [3, 9]: 89.62% | Stability Re (%), Three Freeze–Thaw Cycles [3, 9]: 91.44%

Cc1cc(O)c2c(c1)C(=O)c1cc(O)cc(O)c1C2=O [EM, emodin]
AUC(0-inf) [1, 4]: 1020 ± 300 ng·h/mL | half-life [1, 5]: 11.1 ± 5.22 h | AUC(0-t) [1, 6]: 1020 ± 142 ng·h/mL | Cmax [1, 6]: 388 ± 32.1 ng/mL | MRT last [1, 6]: 6.82 ± 0.545 h | Vd/F [1, 6]: 152 ± 51.5 L/kg | AUC0–∞ ([1]; rat plasma, n = 6): 1041 ± 300.2 ng·h/mL | CLz/F ([1]; rat plasma, n = 6): 171 ± 42.3 mL/min/kg | MRT0–∞ ([1]; rat plasma, n = 6): 12.71 ± 5.092 h | T1/2z ([1]; rat plasma, n = 6): 11.1 ± 5.22 h | Stability in rat plasma (in words) [3]: stable | Stability Re (%), 4 °C, 48 h [3, 7]: 85.19% | Stability Re (%), −80 °C, 10 Days [3, 7]: 111.7% | Stability Re (%), Three Freeze–Thaw Cycles [3, 7]: 99.10% | Stability Re (%), 4 °C, 48 h [3, 8]: 86.36% | Stability Re (%), −80 °C, 10 Days [3, 8]: 97.48% | Stability Re (%), Three Freeze–Thaw Cycles [3, 8]: 96.37% | Stability Re (%), 4 °C, 48 h [3, 9]: 92.05% | Stability Re (%), −80 °C, 10 Days [3, 9]: 99.40% | Stability Re (%), Three Freeze–Thaw Cycles [3, 9]: 98.71%

COc1cc(O)c2c(c1)C(=O)c1cc(C)cc(OC3OC(CO)C(O)C(O)C3O)c1C2=O [PG, physcion-8-O-β-D-glucoside]
half-life [1, 5]: 12.3 ± 10.1 h | AUC(0-inf) [1, 6]: 205 ± 95.6 ng·h/mL | AUC(0-t) [1, 6]: 146 ± 19.4 ng·h/mL | Cmax [1, 6]: 20 ± 2.69 ng/mL | MRT last [1, 6]: 8.41 ± 1.01 h | MRT inf [1, 6]: 17.6 ± 13.9 h | Tmax [1, 10]: 0.25 h | Vd/F [1, 6]: 242 ± 71.8 L/kg | CLz/F ([1]; rat plasma, n = 6): 290 ± 103 mL/min/kg | T1/2z ([1]; rat plasma, n = 6): 12.3 ± 10.1 h | Stability in rat plasma (in words) [3]: stable | Stability Re (%), 4 °C, 48 h [3, 7]: 92.41% | Stability Re (%), −80 °C, 10 Days [3, 7]: 96.88% | Stability Re (%), Three Freeze–Thaw Cycles [3, 7]: 98.03% | Stability Re (%), 4 °C, 48 h [3, 8]: 98.55% | Stability Re (%), −80 °C, 10 Days [3, 8]: 90.14% | Stability Re (%), Three Freeze–Thaw Cycles [3, 8]: 88.21% | Stability Re (%), 4 °C, 48 h [3, 9]: 90.36% | Stability Re (%), −80 °C, 10 Days [3, 9]: 94.69% | Stability Re (%), Three Freeze–Thaw Cycles [3, 9]: 94.08%

OCC1OC(Oc2c(O)cc(O)cc2C=Cc2ccc(O)cc2)C(O)C(O)C1O [TSG, trans-2,3,5,4′-tetrahydroxystilbene-2-O-β-D-glucoside]
half-life [1, 5]: 2.22 ± 1.34 h | AUC(0-inf) [1, 6]: 758 ± 58.6 ng·h/mL | AUC(0-t) [1, 6]: 758 ± 58.9 ng·h/mL | Cmax [1, 6]: 728 ± 104 ng/mL | MRT last [1, 6]: 1.22 ± 0.182 h | MRT inf [1, 6]: 1.23 ± 0.203 h | Tmax [1, 10]: 0.25 h | Vd/F [1, 6]: 2000 ± 1270 L/kg | CLz/F ([1]; rat plasma, n = 6): 10300 ± 769 mL/min/kg | Weighting coefficient (AUC0–∞ share) [2]: 30.19% | Stability in rat plasma (in words) [3]: stable | Stability Re (%), 4 °C, 48 h [3, 7]: 97.86% | Stability Re (%), −80 °C, 10 Days [3, 7]: 92.72% | Stability Re (%), Three Freeze–Thaw Cycles [3, 7]: 99.01% | Stability Re (%), 4 °C, 48 h [3, 8]: 100.1% | Stability Re (%), −80 °C, 10 Days [3, 8]: 97.92% | Stability Re (%), Three Freeze–Thaw Cycles [3, 8]: 91.38% | Stability Re (%), 4 °C, 48 h [3, 9]: 92.13% | Stability Re (%), −80 °C, 10 Days [3, 9]: 95.95% | Stability Re (%), Three Freeze–Thaw Cycles [3, 9]: 95.27%
